Source: patent publication US9932308B2, “Method for producing indoline compound” (UBE INDUSTRIES, LTD., priority 2014, dated 2018)
“Also recorded” adds a separate entry of the source. Values belong to the compound of their own block, whether it stands above or below them.

What was measured:
Assay type in all cases: physicochemical
[1] = Crushing stability test of crystals of compound (1) (crystal form after crushing); details: crushed in a mortar with a pestle
Experimental: The γ-crystal of the compound (1) in the present specification may contain a solvent or the like in addition to the compound (1), as described in Patent Literature 3. In particular, “α-crystal”, “β-crystal”, and “γ-crystal” are each identified by a method described in Patent Literature 3 and, specifically, the identification is performed through measurement of powder X-ray diffraction.
Analysis equipment: Powder X-ray diffractometer, RINT-TTR III (manufactured by Rigaku Corporation)
(§1) An α-crystal, a β-crystal, and a γ-crystal were produced, and each of them was subjected to a photostability test and a crushing stability test under the following conditions.
Each crystal was put in a mortal and crushed with a pestle.

[2] = Thermal stability test of crystal of compound (1) (change in content of compound (E-3) on heating); details: for Content (Y) of compound (E-3) measured after test: after heating of the crystal at 70° C. for 192 hours; for Content (Y) of compound (E-3) measured after test / Content (X) of compound (E-3) measured before test: HPLC peak area ratio, 225 nm; for Content (X) of compound (E-3) measured before test: before heating; for Thermal stability of the crystal (conclusion in words) / [Y−X] (difference between Y and X, increase in content of compound (E-3)): heating at 70° C. for 192 hours
Experimental: In the present specification, a “γ-crystal with good stability” is identified by the thermal stability test described later and is one for which [Y−X] (i.e. a difference between Y and X) is less than 0.040% when the content of the compound (E-3) with respect to the total amount of the crystal is expressed as X % and the content of the compound (E-3) as measured after heating of the crystal at 70° C. for 192 hours is expressed as Y %. The crystal structure of the indoline compound is determined using a powder X-ray diffractometer.
The thermal stability test is a test for evaluating a change in the content of the compound (E-3) in the γ-crystal of the compound (1) caused when the crystal is heated at 70° C. for 192 hours. The pre-test content X (%) of the compound (E-3) with respect to the total amount of the crystal and the post-heating content Y (%) of the compound (E-3) with respect to the total amount of the crystal are measured, and the amount of change is calculated by the formula Y−X and expressed as [Y−X]. The content of the compound (E-3) may be on a mass basis or a volume basis. To measure the content of the compound (E-3) with increased accuracy, the measurement may be performed using high-performance liquid chromatography (HPLC). When the content of the compound (E-3) is measured using HPLC, the content can be measured as a value obtained as follows: a peak area of a peak observed in a chromatogram and attributed to the compound (E-3) is divided by the sum of the peak areas of all the peaks.
Compound analysis was performed in the same manner as in the above examples of step A, except that the measurement wavelength and the mobile phase were changed as follows.
Measurement wavelength: 225 nm
Mobile phase and measurement method: 1.0 g of ammonium formate and water were mixed to a volume of 1000 mL, and then 0.53 mL of formic acid was added to adjust the pH of the solution to 3.7. The measurement was performed as the volume ratio between the solution and acetonitrile was varied from 4:1 to 1:1.
(§2) The content of the compound (E-3) was expressed as a value calculated as follows: a peak area of a peak observed in a chromatogram and attributed to the compound (E-3) was divided by the sum of peak areas of all peaks observed in the chromatogram.

[3] = Photostability test of crystals of compound (1); details: 4000-lux light at 25° C., relative humidity 60%, 336 hours
Experimental: as §2, §1
Each crystal was left under irradiation of 4000-lux light at 25° C. and a relative humidity of 60% for 336 hours.

SMILES: C[C@H](Cc1cc2c(c(C(N)=O)c1)N(CCCO)CC2)NCCOc1ccccc1OCC(F)(F)F [β-crystal, (−)-1-(3-hydroxypropyl)-5-[(2R)-2-({2-[2-(2,2,2-trifluoroethoxy)phenoxy]ethyl}amino)propyl]-2,3-dihydro-1H-indole-7-carboxamide]
Result of crushing stability test (phase transition) [1]: phase transition was not observed

SMILES: C[C@H](Cc1cc2c(c(C(N)=O)c1)N(CCCO)CC2)NCCOc1ccccc1OCC(F)(F)F [Comparative Example C1, (−)-1-(3-hydroxypropyl)-5-[(2R)-2-({2-[2-(2,2,2-trifluoroethoxy)phenoxy]ethyl}amino)propyl]-2,3-dihydro-1H-indole-7-carboxamide, reference compound]
Content (Y) of compound (E-3) measured after test [2]: 0.133%
Content (X) of compound (E-3) measured before test [2]: 0.091%
Thermal stability of the crystal (conclusion in words) [2]: unstable
[Y−X] (difference between Y and X, increase in content of compound (E-3)) [2]: 0.042%

SMILES: C[C@H](Cc1cc2c(c(C(N)=O)c1)N(CCCO)CC2)NCCOc1ccccc1OCC(F)(F)F [γ-crystal, (−)-1-(3-hydroxypropyl)-5-[(2R)-2-({2-[2-(2,2,2-trifluoroethoxy)phenoxy]ethyl}amino)propyl]-2,3-dihydro-1H-indole-7-carboxamide]
Stability to light (conclusion in words) [3]: good stability to light
Result of crushing stability test (phase transition) [1]: phase transition was not observed; also recorded: does not undergo phase transition even when subjected to crushing

SMILES: C[C@H](Cc1cc2c(c(C(N)=O)c1)N(CCCO)CC2)NCCOc1ccccc1OCC(F)(F)F [α-crystal, (−)-1-(3-hydroxypropyl)-5-[(2R)-2-({2-[2-(2,2,2-trifluoroethoxy)phenoxy]ethyl}amino)propyl]-2,3-dihydro-1H-indole-7-carboxamide]
Stability to light (conclusion in words) [3]: the most unstable
Result of crushing stability test (phase transition) [1]: transformed into a γ-crystal; also recorded: the most unstable

Next, values leading:

Content (Y) of compound (E-3) measured after test [2]: 0.088%
Content (X) of compound (E-3) measured before test [2]: 0.076%
Thermal stability of the crystal (conclusion in words) [2]: stable
[Y−X] (difference between Y and X, increase in content of compound (E-3)) [2]: 0.012%
SMILES: C[C@H](Cc1cc2c(c(C(N)=O)c1)N(CCCO)CC2)NCCOc1ccccc1OCC(F)(F)F [Example C2, (−)-1-(3-hydroxypropyl)-5-[(2R)-2-({2-[2-(2,2,2-trifluoroethoxy)phenoxy]ethyl}amino)propyl]-2,3-dihydro-1H-indole-7-carboxamide]

Content (Y) of compound (E-3) measured after test [2]: 0.091%
Content (X) of compound (E-3) measured before test [2]: 0.067%
Thermal stability of the crystal (conclusion in words) [2]: stable
[Y−X] (difference between Y and X, increase in content of compound (E-3)) [2]: 0.024%
SMILES: C[C@H](Cc1cc2c(c(C(N)=O)c1)N(CCCO)CC2)NCCOc1ccccc1OCC(F)(F)F [Example C4, (−)-1-(3-hydroxypropyl)-5-[(2R)-2-({2-[2-(2,2,2-trifluoroethoxy)phenoxy]ethyl}amino)propyl]-2,3-dihydro-1H-indole-7-carboxamide]

Content (Y) of compound (E-3) measured after test [2]: 0.097%
Content (X) of compound (E-3) measured before test [2]: 0.071%
Thermal stability of the crystal (conclusion in words) [2]: stable
[Y−X] (difference between Y and X, increase in content of compound (E-3)) [2]: 0.026%
SMILES: C[C@H](Cc1cc2c(c(C(N)=O)c1)N(CCCO)CC2)NCCOc1ccccc1OCC(F)(F)F [Example C3, (−)-1-(3-hydroxypropyl)-5-[(2R)-2-({2-[2-(2,2,2-trifluoroethoxy)phenoxy]ethyl}amino)propyl]-2,3-dihydro-1H-indole-7-carboxamide]

Content (Y) of compound (E-3) measured after test [2]: 0.044%
Content (X) of compound (E-3) measured before test [2]: 0.043%
Thermal stability of the crystal (conclusion in words) [2]: stable
[Y−X] (difference between Y and X, increase in content of compound (E-3)) [2]: 0.001%
SMILES: C[C@H](Cc1cc2c(c(C(N)=O)c1)N(CCCO)CC2)NCCOc1ccccc1OCC(F)(F)F [Example C1, (−)-1-(3-hydroxypropyl)-5-[(2R)-2-({2-[2-(2,2,2-trifluoroethoxy)phenoxy]ethyl}amino)propyl]-2,3-dihydro-1H-indole-7-carboxamide]
